Laboratory results from patent publication US4877893A, “Process for the preparation of 2-(O-alkyl)-2-thio-1,3,2-oxathiophospholanes” (priority 1987, dated 1989).

Legend:
Assay in all cases: Fungicidal effect on infected agar nutrient media, colony diameter
Format in all cases: cell-based
Sclerotinia sclerotinia = details: 3rd day after treatment, untreated control 41.7
Protocol: (§1) Agar nutrient media (Diameter 70 MM, thickness 10 mm) infected by Sclerotonia sclerotinia suspension are treated with 20 EC formulations prepared according to Example 27 and comprising 1, 10, 100 and 1000 ppm, respectively of the active ingredient of the Formula I. The fungicidal effect of the compositions is evaluated on the 3rd day after treatment by measuring the diameter of the Fungi colonies.

Penicillium cyclopium = details: 7th day after treatment, untreated 26.5
Protocol: as §1
The series of measureents described in Example 35 is carried out except that the agar nutrient media are infected by a Penicillium cyclopium Fungi strain and the test is evaluated on the 7th day after treatment.

Alternaria tenuis = details: 5th day after treatment, untreated control 36.8
Protocol: as §1
The series of measurements according to Example 35 is carried out except that the agar nutrient media are infected by Alternaria Tenius and evaluation is accomplished on the 5th day after treatment.

Row | SMILES | Diameter of colony (mm) (Sclerotinia sclerotinia; 1 ppm) | Diameter of colony (mm) (Sclerotinia sclerotinia; 10 ppm) | Diameter of colony (mm) (Sclerotinia sclerotinia; 100 ppm) | Diameter of colony (mm) (Sclerotinia sclerotinia; 1000 ppm) | Diameter of colony (mm) (Penicillium cyclopium; 1 ppm) | Diameter of colony (mm) (Penicillium cyclopium; 10 ppm) | Diameter of colony (mm) (Penicillium cyclopium; 100 ppm) | Diameter of colony (mm) (Penicillium cyclopium; 1000 ppm) | Diameter of colony (mm) (Alternaria tenuis; 1 ppm) | Diameter of colony (mm) (Alternaria tenuis; 10 ppm) | Diameter of colony (mm) (Alternaria tenuis; 100 ppm) | Diameter of colony (mm) (Alternaria tenuis; 1000 ppm)
1 | CC(C)COP1(=S)OCCS1 (stereo not drawn) [Compound 50, 2-(0-2'-methyl-n-propyl)-2-thio-1,3,2-oxathiophospholane] | 36.5 mm | 29.7 mm | 3.7 mm | 0 mm | 25.1 mm | 19.2 mm | 7.7 mm | 0 mm | 35.2 mm | 23.8 mm | 5.3 mm | 0 mm
2 | CCCCOP1(=S)OCCS1 (stereo not drawn) [Compound 59, 2-(0-n-butyl)-2-thio-1,3,2-oxathiophospholane] | 34.3 mm | 28.5 mm | 4.0 mm | 0 mm | 25.0 mm | 18.7 mm | 7.6 mm | 0 mm | 34.0 mm | 24.1 mm | 5.6 mm | 0 mm
3 | CC(Br)COP1(=S)OC(C)CS1 (stereo not drawn) [Compound 23] | 36.9 mm | 29.7 mm | 3.6 mm | 0 mm | 22.6 mm | 15.8 mm | 4.3 mm | 0 mm | 33.8 mm | 24.1 mm | 5.2 mm | 0 mm
4 | CC(CCl)OP1(=S)OC(C)CS1 (stereo not drawn) [Compound 19, 2-(0-1'-methyl-2'-chloroethyl)-2-thio-5-methyl-1,3,2-oxathiophospholane] | 36.5 mm | 27.4 mm | 3.9 mm | 0 mm | 21.5 mm | 15.6 mm | 5.5 mm | 0 mm | 32.3 mm | 21.7 mm | 4.3 mm | 0 mm
5 | CC(I)COP1(=S)OC(C)C(C)S1 (stereo not drawn) [Compound 42] | 38.2 mm | 31.2 mm | 3.5 mm | 0 mm | 22.2 mm | 17.2 mm | 7.5 mm | 0 mm | 32.1 mm | 20.4 mm | 9.0 mm | 0 mm
6 | CC(C)COP1(=S)OC(C)CS1 (stereo not drawn) [Compound 52, 2-(0-2'-methyl-n-propyI)-2-thio-5-methyl-1,3,2-oxathiophospholane] | 37.1 mm | 28.6 mm | 3.0 mm | 0 mm | 26.2 mm | 20.0 mm | 8.8 mm | 0 mm | 34.8 mm | 26.2 mm | 4.7 mm | 0 mm
7 | CCOP1(=S)OCCS1 (stereo not drawn) [Compound 55] | 33.1 mm | 28.2 mm | 0 mm | 0 mm | 21.9 mm | 18.1 mm | 8.0 mm | 0 mm | 32.4 mm | 23.5 mm | 5.2 mm | 0 mm
8 | CCCOP1(=S)OCC(CC)S1 (stereo not drawn) [Compound 51, 2-(0-n-propyl)-2-thio-4-ethyl-1,3,2-oxathiophospholane] | 34.3 mm | 30.0 mm | 3.2 mm | 0 mm | 24.9 mm | 18.7 mm | 8.2 mm | 0 mm | 35.1 mm | 24.3 mm | 6.9 mm | 0 mm
